Where “and” joins values, the source holds several entries; their conditions need not be identical. Equal values may be shown once. Read-outs that look alike come from different tables or passages of the source.
Columns and labels:
[1] = target: T1, 5HT1a receptors (Rattus norvegicus, UniProt P19327); test: Binding at 5HT1a receptors in vitro (inhibition of 3H-8-OH-DPAT binding to synaptosomal membranes from cerebral cortex); set-up: species or system Male Sprague-Dawley rats; conditions: 0.4 nM 3H-8-OH-DPAT, 37° C., 10 min, pH 7.4, several values in a cell are separate determinations
T1 construct: synaptosomal membranes isolated from cerebral cortex; from tissue; host or cells: rat cerebral cortex, crude synaptosomal membranes (Male Sprague-Dawley rats from Harlan Industries)
T1 sequence (P19327 1-422): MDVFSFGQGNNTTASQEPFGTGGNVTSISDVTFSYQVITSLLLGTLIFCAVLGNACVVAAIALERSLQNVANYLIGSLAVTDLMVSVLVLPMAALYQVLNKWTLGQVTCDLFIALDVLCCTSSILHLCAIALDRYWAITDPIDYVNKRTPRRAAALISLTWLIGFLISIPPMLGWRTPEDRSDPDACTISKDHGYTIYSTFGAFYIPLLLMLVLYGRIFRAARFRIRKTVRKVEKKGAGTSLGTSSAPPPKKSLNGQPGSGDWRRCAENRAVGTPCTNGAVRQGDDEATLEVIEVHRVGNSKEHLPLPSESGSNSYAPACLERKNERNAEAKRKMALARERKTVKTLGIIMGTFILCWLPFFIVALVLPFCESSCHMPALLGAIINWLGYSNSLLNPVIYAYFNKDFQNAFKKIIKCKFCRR
Protocol: This general procedure is set forth in Wong et al., J. Neural Transm. 71:207-218 (1988).
Male Sprague-Dawley rats (110-150 g) from Harlan Industries (Cumberland, Ind.) were fed a Purina Chow ad libitum for at least 3 days before being used in the studies. Rats were killed by decapitation. The brains were rapidly removed, and the cerebral cortices were dissected out at 4° C.
Brain tissues were homogenized in 0.32 M sucrose. After centrifugation at 1000×g for 10 min and then at 17000×g for 20 min, a crude synaptosomal fraction was sedimented. The pellet was suspended in 100 vol of 50 mM Tris-HCl, pH 7.4, incubated at 37° C. for 10 min, and centrifuged at 50000×g for 10 min. The process was repeated and the final pellet was suspended in ice-chilled 50 mM Tris-HCl, pH 7.4. By the radio-ligand binding method, sites specifically labeled by tritiated 8-hydroxy-2-dipropylamino-1,2,3,4-tetrahydronaphthalene ([…]) have been identified as 5HT-1a receptors.
Binding of (^3 H-8-OH-DPAT) was performed according to the previously described method [Wong et al., J. Neural Transm. 64:251-269 (1985)]. Briefly, synaptosomal membranes isolated from cerebral cortex were incubated at 37° C. for 10 min. in 2 ml of 50 mM Tris-HCl, pH 7.4; 10 μM pargyline; 0.6 mM ascorbic acid; and 0.4 nM […]. Binding was terminated by filtering samples under reduced pressure through glass fiber (GFB) filters. The filters were washed twice with 5 ml of ice cold buffer and placed in scintillation vials with 10 ml of PCS (Amersham/Searle) scintillation fluid. Radioactivity was measured with a liquid scintillation spectrometer. Unlabeled 8-OH-DPAT at 10 μM was also included in separate samples to establish non-specific binding. Specific binding of ^3 H-8-OH-DPAT is defined as the difference of radioactivity bound in the absence and in the presence of 10 μM unlabeled 8-OH-DPAT.

[2] = tested on: conscious spontaneous hypertensive rats (SHR); test: Effect on blood pressure after i.v. administration to conscious SHR; assay type: in vivo; conditions: for ED25: Rattus norvegicus, iv, read-out: Blood Pressure ED25 (i.v. dose required to decrease pressure 25%)
Protocol: (§1) The compounds of this invention are also effective in reducing blood pressure. The blood pressure lowering effect of the compounds of this invention was determined in conscious spontaneous hypertensive rats (SHR; 325-425 g). The rats were anesthetized with halothane (2% in nitrous oxide and oxygen) and were implanted with femoral arterial and venous catheters. The tips of arterial and venous catheters-were positioned in the abdominal aorta below the renal arteries and lower abdominal vena cava, respectively. The catheters were routed subcutaneously to an exit point at the base of the skull and then through a small leather harness fastened around the forequarters of each animal. The animals were allowed a 3- to 4-day recovery period after surgery. On the day before an experiment, each rat was conditioned to the experimental surroundings for 6 hours. On the day of the experiment, the harness on the back of each animal was connected to a spring tether through which arterial and venous extension tubing was routed. The other end of the tubing was connected to a water tight swivel. This system permitted direct recording of blood pressure in conscious free moving animals. Mean arterial blood pressure was measured via a Statham strain gauge transducer (P23DB, Statham Instruments, Oxnard, Calif.) and recorded on a multichannel oscillograph (Beckman Model R611, Beckman Instruments, Palo Alto, Calif.). A minimum 30-minute equilibration period was observed prior to the experimental protocol during which time the animals preened and blood pressure was quite labile. Afterward, the animals appeared to sleep and pressure was stable. Following a control blood pressure measurement, rats were dosed with the compound or vehicle i.v., and pressure was monitored at various time intervals thereafter.
(§2) ^1 Standard protocol recorded the blood pressure and heart rate
(§3) responses after 0.3, 1.0 and 3.0 mg/kg i.v. Dose response curves were
(§4) plotted using the % change in pressure from pretreatment control values a
(§5) 15 and 30 minutes after treatment.
(§6) Corr = correlation coefficient for the linear relationship between the lo
(§7) dose(s) and % change (y) in pressure. Values of 1.0 = perfect correlation
(§8) Pos = Positive slope of dose response
ED25 = i.v. dose required to decrease pressure 25%

[3] = tested on: conscious spontaneous hypertensive rats (SHR); test: Effect on heart rate after i.v. administration to conscious SHR; assay type: in vivo; conditions: for ED15: Rattus norvegicus, iv, read-out: Heart Rate ED15
Protocol: as §1, §2, §3, §4, §5, §6, §7, §8
HR Index = ED15 for Heart Rate divided by ED25 for Blood

[4] = 30 min. after treatment, i.v., conscious SHR
[5] = 0.25 h, 15 min. after treatment, i.v., conscious SHR
[6] = 0.5 h, 30 min. after treatment, i.v., conscious SHR
[7] = 15 min. after treatment, i.v., conscious SHR

CCN(CC)C1CCc2cccc(Cl)c2C1 (stereo not shown) [Example 2, 2-Diethylamino-8-chloro-1,2,3,4-tetrahydronaphthalene]
IC50 ([1]; IC50 5HT1a): 48 nM and 38.2 nM
ED25 ([2]; 0.5 h): 1.5 mg/kg
HR Index (ED15 for Heart Rate divided by ED25 for Blood Pressure) [3, 4]: 1.00
ED15 ([3]; 0.5 h): 1.5 mg/kg

CCCN(CCC)C1CCc2cccc(Cl)c2C1 (stereo not shown) [Example 1, 2-Di-n-propylamino-8-chloro-1,2,3,4-tetrahydronaphthalene]
IC50 ([1]; IC50 5HT1a): 18 nM
ED25 [2, 5]: 3.1 mg/kg
ED25 [2, 6]: 13 mg/kg
HR Index (ED15 for Heart Rate divided by ED25 for Blood Pressure) [3, 7]: 8.96
HR Index (ED15 for Heart Rate divided by ED25 for Blood Pressure) [3, 4]: 0.22
ED15 [3, 5]: 27.8 mg/kg
ED15 [3, 6]: 2.8 mg/kg

C=CCN(CC=C)C1CCc2cccc(Cl)c2C1 (stereo not shown) [Example 3, 2-Diallylamino-8-chloro-1,2,3,4-tetrahydronaphthalene]
IC50 ([1]; IC50 5HT1a): 45.2 nM

CCCN(CCC)C1CCc2cccc(C(=O)OC)c2C1 (stereo not shown) [Example 7, 2-Di-n-propylamino-8-methoxycarbonyl-1,2,3,4-tetrahydronaphthalene]
IC50 ([1]; IC50 5HT1a): 1.4 nM and 1.8 nM and 2.4 nM
ED25 [2, 6]: 5.3 mg/kg
HR Index (ED15 for Heart Rate divided by ED25 for Blood Pressure) [3, 4]: 0.21
ED15 [3, 5]: 1.4 mg/kg
ED15 [3, 6]: 1.1 mg/kg

CCN(C)C1CCc2cccc(Cl)c2C1 (stereo not shown) [Example 13, 2-Methylethylamino-8-chloro-1,2,3,4-tetrahydronaphthalene]
IC50 ([1]; read-out: IC50 5HT1a): 120 nM
ED25 [2, 5]: 0.7 mg/kg
ED25 [2, 6]: 0.9 mg/kg
HR Index (ED15 for Heart Rate divided by ED25 for Blood Pressure) [3, 7]: 0.69
HR Index (ED15 for Heart Rate divided by ED25 for Blood Pressure) [3, 4]: 0.70
ED15 [3, 5]: 0.48 mg/kg
ED15 [3, 6]: 0.63 mg/kg

CCN(C)C1CCc2cccc(C(N)=O)c2C1 (stereo not shown) [Example 20, 2-Methylethylamino-8-carboxamido-1,2,3,4-tetrahydronaphthalene]
IC50 ([1]; read-out: IC50 5HT1a): 400 nM

CCCN(CCC)C1CCc2cccc(C(N)=O)c2C1 (stereo not shown) [Example 16, 2-Di-n-propylamino-8-carboxamido-1,2,3,4-tetrahydronaphthalene]
IC50 ([1]; IC50 5HT1a): 7.1 nM and 9 nM and 6.1 nM and 5.8 nM
ED25 [2, 5]: 4.2 mg/kg
ED25 [2, 6]: 5.7 mg/kg
HR Index (ED15 for Heart Rate divided by ED25 for Blood Pressure) [3, 7]: 0.35
HR Index (ED15 for Heart Rate divided by ED25 for Blood Pressure) [3, 4]: 0.51
ED15 [3, 5]: 1.5 mg/kg
ED15 [3, 6]: 2.9 mg/kg

CCCN(CCC)C1CCc2cccc(Br)c2C1 (stereo not shown) [Example 5, 2-Di-n-propylamino-8-bromo-1,2,3,4-tetrahydronaphthalene]
IC50 ([1]; IC50 5HT1a): 23 nM and 15.1 nM
ED25 [2, 5]: 6.1 mg/kg
ED25 [2, 6]: 5.9 mg/kg
HR Index (ED15 for Heart Rate divided by ED25 for Blood Pressure) [3, 7]: 0.06
HR Index (ED15 for Heart Rate divided by ED25 for Blood Pressure) [3, 4]: 0.27
ED15 [3, 5]: 1.6 mg/kg
ED15 [3, 6]: 1.6 mg/kg

CCCNC1CCc2cccc(NC(C)=O)c2C1 (stereo not shown) [Example 18, 2-Propylamino-8-acetamido-1,2,3,4-tetrahydronaphthalene]
ED15 [3, 5]: 3.8 mg/kg
ED15 [3, 6]: 1.2 mg/kg

CN(C)C1CCc2cccc(Cl)c2C1 (stereo not shown) [Example 11, 2-Dimethylamino-8-chloro-1,2,3,4-tetrahydronaphthalene]
IC50 ([1]; read-out: IC50 5HT1a): 580 nM and 272 nM
ED25 [2, 5]: 1.1 mg/kg
ED25 [2, 6]: 1.8 mg/kg
HR Index (ED15 for Heart Rate divided by ED25 for Blood Pressure) [3, 7]: 1.0
HR Index (ED15 for Heart Rate divided by ED25 for Blood Pressure) [3, 4]: 3.00
ED15 [3, 5]: 1.1 mg/kg
ED15 [3, 6]: 5.4 mg/kg

CCCN(CCC)C1CCc2cccc(C#N)c2C1 (stereo not shown) [Example 8, 2-Di-n-propylamino-8-cyano-1,2,3,4-tetrahydronaphthalene]
IC50 ([1]; IC50 5HT1a): 55 nM
ED25 [2, 5]: 5.1 mg/kg
ED25 [2, 6]: 4.1 mg/kg
HR Index (ED15 for Heart Rate divided by ED25 for Blood Pressure) [3, 7]: 0.71
HR Index (ED15 for Heart Rate divided by ED25 for Blood Pressure) [3, 4]: 0.68
ED15 [3, 5]: 3.6 mg/kg
ED15 [3, 6]: 2.8 mg/kg

CCCN(CCC)C1CCc2cccc(CO)c2C1 (stereo not shown) [Example 21, 2-Di-n-propylamino-8-hydroxymethyl-1,2,3,4-tetrahydronaphthalene]
IC50 ([1]; IC50 5HT1a): 55.5 nM
convulsion ([2]; 3.0 mg/kg i.v., conscious SHR): caused convulsion
ED25 [2, 5]: 4.2 mg/kg

CCCCN(CCCC)C1CCc2cccc(Cl)c2C1 (stereo not shown) [Example 4, 2-Di-n-butylamino-8-chloro-1,2,3,4-tetrahydronaphthalene]
IC50 ([1]; read-out: IC50 5HT1a): 780 nM and 318 nM

CCCNC1CCc2cccc(Cl)c2C1 (stereo not shown) [Example 10, 2-n-Propylamino-8-chloro-1,2,3,4-tetrahydronaphthalene]
IC50 ([1]; read-out: IC50 5HT1a): 200 nM
ED25 [2, 5]: 2.5 mg/kg
ED25 [2, 6]: 4.5 mg/kg
HR Index (ED15 for Heart Rate divided by ED25 for Blood Pressure) [3, 7]: 0.48
HR Index (ED15 for Heart Rate divided by ED25 for Blood Pressure) [3, 4]: 0.47
ED15 [3, 5]: 1.2 mg/kg
ED15 [3, 6]: 2.1 mg/kg

CNC1CCc2cccc(Cl)c2C1 (stereo not shown) [Example 12, 2-Methylamino-8-chloro-1,2,3,4-tetrahydronaphthalene]
ED25 [2, 5]: 1.4 mg/kg
ED25 [2, 6]: 1.8 mg/kg
HR Index (ED15 for Heart Rate divided by ED25 for Blood Pressure) [3, 4]: 0.83
ED15 [3, 6]: 1.5 mg/kg

CCCN(CCC)C1CCc2cccc(F)c2C1 (stereo not shown) [Example 6, 2-Di-n-propylamino-8-fluoro-1,2,3,4-tetrahydronaphthalene]
IC50 ([1]; read-out: IC50 5HT1a): 280 nM
ED25 [2, 5]: 4.5 mg/kg
Heart Rate ED15 [3, 7]: Pos
ED15 [3, 6]: 8 mg/kg

CC(C)N(C)C1CCc2cccc(Cl)c2C1 (stereo not shown) [Example 14, 2-Methylisopropylamino-8-chloro-1,2,3,4-tetrahydronaphthalene]
ED25 [2, 5]: 2.9 mg/kg
HR Index (ED15 for Heart Rate divided by ED25 for Blood Pressure) [3, 7]: 1.31
ED15 [3, 5]: 3.8 mg/kg

CCCN(C)C1CCc2cccc(Cl)c2C1 (stereo not shown) [Example 15, 2-Methylpropylamino-8-chloro-1,2,3,4-tetrahydronaphthalene]
IC50 ([1]; read-out: IC50 5HT1a): 500 nM
ED25 [2, 5]: 1.6 mg/kg
ED25 [2, 6]: 3.8 mg/kg

CN(C)C1CCc2cccc(C(N)=O)c2C1 (stereo not shown) [Example 19, 2-Dimethylamino-8-carboxamido-1,2,3,4-tetrahydronaphthalene]
ED25 [2, 5]: 10.9 mg/kg
ED25 [2, 6]: 1030 mg/kg
Heart Rate ED15 [3, 7]: Pos
Heart Rate ED15 [3, 4]: Pos

CCCN(CCC)C1CCc2cccc(C=O)c2C1 (stereo not shown) [Example 17, 2-Di-n-propylamino-8-formyl-1,2,3,4-tetrahydronaphthalene]
IC50 ([1]; IC50 5HT1a): 17.2 nM

Reference: patent US5389687A, “Ring-substituted 2-amino-1,2,3,4-tetra-hydronaphthalenes” (Eli Lilly and Company, priority 1991, dated 1995)
